# Details: not given
Compound,melting point,ready biodegradability,boiling point,log10 vapour pressure (mmHg),log10 Henry constant (atm·m³/mol),log10 Koa,log10 Koc (L/kg),log10 biodegradation half-life (days)
CN1CCN(C2=Nc3ccccc3Oc3ccc(Cl)cc32)CC1,110 °C,,,,,,,
CCCCCCCCCCSSCCCCCCCCCC,,not readily biodegradable,,,,,,
CC(C)(CCC(=O)O)C(=O)O,84 °C,,,,,,,
Cc1cc(C)c([N+](=O)[O-])c(C)c1,44 °C,,255 °C,,,,,
CC(=O)OC1CCCCC1C(C)(C)C (configuration not stated),35 °C,,,,,,,
Cc1ccc(OP(=O)(Oc2ccc(C)cc2)Oc2ccc(C)cc2)cc1,77.5 °C,,,,,,,
CON,,,49.5 °C,2.46,,,,
O=c1oc2ccccc2c(O)c1C(CC(O)c1ccc(Cl)cc1)c1ccc(Cl)s1 (configuration not stated),104 °C,,,,,,,
CC(C)C1NC(=O)NC1=O (configuration not stated),,not readily biodegradable,,,,,,
CCNc1ccc([N+](=O)[O-])cc1,97 °C,,,,,,,
CCCCOC(=O)c1ccccc1C(=O)O,73.5 °C,,,,,,,
CCCCCCCCCCI,-16.3 °C,,,-1.85,,,,
CCN(C(C)=O)c1ccccc1,55 °C,,260 °C,,,,,
COc1cccc(O)c1O,42.8 °C,,,,,,,
C[C@]12C=CC(=O)C=C1CC[C@H]1[C@@H]3C[C@@H](O)[C@](O)(C(=O)CO)[C@@]3(C)C[C@H](O)[C@@]12F,270 °C,,,,,,,
COC(=O)c1cccc(Cl)c1,21 °C,,,,,,,
Cc1cc(C)cc(C(C)(C)C)c1,-18 °C,,207 °C,,,,,
CCOc1ccccc1O,29 °C,,217 °C,,,,,
Oc1c(I)cc(I)cc1I,160 °C,,,,,,,
O=C1C=C(Nc2ccccc2)C(=O)c2ccccc21,193 °C,,,,,,,
NC(=S)Nc1ccccc1Cl,146 °C,,,,,,,
COc1nccnc1NS(=O)(=O)c1ccc(N)cc1,176 °C,,,,,,,
CCC(N)CC,,,89 °C,,,,,
N#CI,147 °C,,,,,,,
O=C(C(=O)c1ccco1)c1ccco1,164 °C,,,,,,,

Compound,melting point,ready biodegradability,boiling point,log10 vapour pressure (mmHg),log10 Henry constant (atm·m³/mol),log10 Koa,log10 Koc (L/kg),log10 biodegradation half-life (days)
NCCN1CCOCC1,25.6 °C,,205 °C,,,,,
Oc1ccc2ccc3cccc4ccc1c2c34,180 °C,,,-8.32,,,,
BrCCCCCCCCCCCCCCBr,50.4 °C,,,,,,,
O=[N+]([O-])c1cc(S(=O)(=O)Nc2ccccc2)ccc1Nc1ccccc1,156 °C,not readily biodegradable,,,,,,
NC(=O)C(Br)(Br)Br,122 °C,,,,,,,
COC(=O)C(C)(C)O,,,137 °C,,,,,
O=C1CCC1,-50.9 °C,,99 °C,1.63,,,,
C[Si]1(C)N[Si](C)(C)N[Si](C)(C)N1,-10 °C,,188 °C,,,,,
CCCOC(=O)C(O)C(O)C(=O)OCCC (configuration not stated),,,303 °C,,,,,
O=C(O)c1ccc(NC(=O)[C@H](Cc2ccc(O)cc2)NC(=O)c2ccccc2)cc1,241 °C,,,,,,,
NC[C@H](O)c1ccccc1,56.5 °C,,,,,,,
COc1ccc2c(c1)CC[C@@H]1[C@@H]2CC[C@]2(C)[C@@H](O)[C@H](O)C[C@@H]12,159 °C,,,,,,,
O=C(O)CC(S)C(=O)O (configuration not stated),149 °C,,,,,,,
O=C(OCC(F)(F)F)C(F)(F)F,,,55 °C,,,,,
CC1(C)[C@@H]2CC[C@@]1(C)[C@H](O)C2,209 °C,,,,,,,
c1ccc(C(c2ccccc2)c2ccccc2)cc1,94 °C,,359 °C,-5.25,,,,
O=S(=O)(F)c1ccccc1,,,204 °C,,,,,
CC(=O)OCCOCCOCCOC(C)=O,-50 °C,,286 °C,,,,,
C=CC(F)(Cl)C(F)(F)Br (configuration not stated),,,99.5 °C,,,,,
CCC(C)CC(C)N (configuration not stated),,,132 °C,,,,,
NC(=O)N1c2ccccc2C=Cc2ccccc21,190 °C,,,,,,,
CCN(CC)c1cccc(O)c1,78 °C,,276 °C,,,,,
OCC(O)c1ccccc1 (configuration not stated),67.5 °C,,273 °C,,,,,
c1ccc2c(c1)COC2,,,192 °C,,,,,
CC1CNCCN1 (configuration not stated),62 °C,,153 °C,,,,,

Compound,melting point,ready biodegradability,boiling point,log10 vapour pressure (mmHg),log10 Henry constant (atm·m³/mol),log10 Koa,log10 Koc (L/kg),log10 biodegradation half-life (days)
CCCCCCCCCCC(=O)O,28.6 °C,readily biodegradable,280 °C,-2.42,,,,
NC(=O)c1ccc(O)cc1,162 °C,,,,,,,
CCC1(CC)C(=O)NC(=O)NC1=O,190 °C,,,,,,,
N#CCO,,,183 °C,,,,,
CCCCCCCC(=O)NO,78.8 °C,,,,,,,
CCOc1ccc2ccccc2c1C=O,115 °C,,,,,,,
CCOC(=O)c1ccc(NC(=O)CCl)cc1,,readily biodegradable,,,,,,
CC(C)C(c1ccccc1)C(C)C,-24.5 °C,,221 °C,,,,,
CC(CC1CCCCC1)C1CCCCC1 (configuration not stated),-22 °C,,284 °C,,,,,
O=C(O)c1cnccn1,,readily biodegradable,,,,,,
O=C(c1ccc(O)cc1)c1ccc(O)c(O)c1O,,not readily biodegradable,,,,,,
CNC[C@H](O)c1ccc(O)c(O)c1.O=C(O)[C@H](O)[C@@H](O)C(=O)O,150 °C,,,,,,,
CCCCCC#CC(=O)O,4 °C,,,,,,,
COC(=O)CCCCC(=O)OC,10.3 °C,,,-1.22,,,,
OCC(CO)(CCl)CCl,83 °C,,,,,,,
ClC(Cl)(Br)CBr,-26 °C,,195 °C,-0.0458,,,,
CCCCNC(=O)COC(=O)c1ccccc1,69.5 °C,,,,,,,
COc1ccccc1OC(C)=O,31.5 °C,,,,,,,
Cc1cccc(C)c1O,45.7 °C,not readily biodegradable,201 °C,-0.767,-5.18,,,
Brc1ccc2c(c1)Oc1ccc(Br)cc1O2,193 °C,,,-5.95,,,,
C[C@]12CC[C@H]3[C@@H](CCC4=CC(=O)C=C[C@@]43C)[C@@H]1CC[C@H]2O,165 °C,,,,,,,
Clc1c(Cl)c(Cl)c2c(c1Cl)Oc1ccccc1O2,188 °C,,,-7.32,-4.7,9.7,,
BrCc1ccc2ccccc2c1,56 °C,,,,,,,
Nc1ccc(Cl)nc1Cl,119 °C,,,,,,,
CC(=O)OCCCCl,,,164 °C,,,,,

Compound,melting point,ready biodegradability,boiling point,log10 vapour pressure (mmHg),log10 Henry constant (atm·m³/mol),log10 Koa,log10 Koc (L/kg),log10 biodegradation half-life (days)
CNC(=O)Oc1cc(C(C)(C)C)cc(C(C)(C)C)c1,103 °C,,,-5.7,,,,
OCC(O)CI (configuration not stated),48.5 °C,,,,,,,
CC(=O)O[C@H]1C[C@@H]2CC[C@@H]3[C@H](CC[C@@]4(C)[C@H]3C[C@H]([N+]3(C)CCCCC3)[C@@H]4OC(C)=O)[C@@]2(C)C[C@@H]1N1CCCCC1.[Br-],228 °C,,,,,,,
O=C(O)CC(Br)C(=O)O (configuration not stated),161 °C,,,,,,,
CCOc1ccc(C(=O)O)cc1,198 °C,,,,,,,
O=S(=O)(O)c1cc(S(=O)(=O)O)c2c(/N=N\c3ccc(S(=O)(=O)O)c4ccccc34)c(O)ccc2c1,,not readily biodegradable,,,,,,
C=COC(=O)C=C,,,91 °C,,,,,
CN1CCN(C(c2ccccc2)c2ccccc2)CC1,106 °C,,,,,,,
CCCCCCCCCCCC[N+](C)(C)CCOc1ccccc1.[Br-],112 °C,,,,,,,
CC(CCC(C)C)=NO,,,196 °C,,,,,
c1ccc(COP(OCc2ccccc2)OCc2ccccc2)cc1,,readily biodegradable,,,,,,
CC(Cl)C(Cl)CCl (configuration not stated),,,168 °C,,,,,
CCCCCCCCI,-45.7 °C,,226 °C,-0.602,,,,
CC(C)N(CCC(C(N)=O)(c1ccccc1)c1ccccn1)C(C)C (configuration not stated),94.8 °C,,,,,,,
CC1(C)[C@H](C=C(Cl)Cl)[C@H]1C(=O)OCc1c(F)c(F)cc(F)c1F,32 °C,,,-5.52,,,,
COc1cc(C(Cl)(Cl)Cl)cc(Cl)n1,,,,,,,3.48,
CC(=O)OCC=Cc1ccccc1,,,265 °C,,,,,
O=C1CCCCCC1,,,178 °C,0.0969,,,,
Clc1cc2oc3c(Cl)c(Cl)ccc3c2c(Cl)c1Cl,206 °C,,,-8.65,,,,
OC(Cn1cncn1)(c1ccc(F)cc1)c1ccccc1F (configuration not stated),130 °C,,,-10.3,,,1.88,
Cc1ccccc1C,-25.2 °C,readily biodegradable,144 °C,0.82,-2.29,3.91,2.25,0.778
CCOC(=O)CC(O)(CC(=O)OCC)C(=O)OCC,,,294 °C,,,,,
CCOC(=O)C#Cc1ccccc1,,,265 °C,,,,,
ClC1=C(Cl)C2(Cl)C3C(Cl)C=CC3C1(Cl)C2(Cl)Cl (configuration not stated),95.5 °C,not readily biodegradable,310 °C,-3.4,-3.53,7.64,4.38,
O=C(O)C=Cc1ccccc1F,179 °C,,,,,,,

Compound,melting point,ready biodegradability,boiling point,log10 vapour pressure (mmHg),log10 Henry constant (atm·m³/mol),log10 Koa,log10 Koc (L/kg),log10 biodegradation half-life (days)
BrCC(Br)(Br)CBr,10.5 °C,,,,,,,
Cc1ccnc(N)c1,100 °C,,,,,,,
Cc1cncc(C)n1,47.5 °C,,156 °C,,,,,
c1ccc2c(c1)CC1c3ccccc3CCN1C2 (configuration not stated),85 °C,not readily biodegradable,,,,,,
Nc1ccc(N)c2c1C(=O)c1c(N)ccc(N)c1C2=O,285 °C,,,,,,,
CC1CCCCC1O (configuration not stated),,,164 °C,,-5.12,,,
C=C(C)C(C)(C)CC,-69 °C,,108 °C,1.48,,,,
CCOC(=O)CSc1nc(C(C)(C)C)nn1C(=O)N(C)C,53 °C,,,-6.92,,,,
S=C(Cl)Cl,,,73 °C,,,,,
c1ccc2cc(Nc3ccc4ccccc4c3)ccc2c1,172 °C,,471 °C,,,,,
Nc1ccccn1,57.5 °C,not readily biodegradable,211 °C,,,,,
O=S1CCC1,31.5 °C,,,,,,,
N#CSCCl,,,185 °C,,,,,
CCCCCN1C(=O)c2ccc([N+](=O)[O-])cc2C1=O,,readily biodegradable,,,,,,
Nc1ccc(Cl)cc1Cl,63.5 °C,not readily biodegradable,245 °C,,,,2.72,
CC(=O)OCOC(=O)[C@@H]1N2C(=O)[C@@H](NC(=O)Cc3ccccc3)[C@H]2SC1(C)C,107 °C,,,,,,,
C[C@@H]1O[C@@H](O[C@H]2CC[C@]3(C=O)[C@H]4CC[C@]5(C)[C@@H](c6ccc(=O)oc6)CC[C@]5(O)[C@@H]4CC[C@]3(O)C2)[C@H](O)[C@H](O)[C@H]1O[C@@H]1O[C@H](CO)[C@@H](O)[C@H](O)[C@H]1O,284 °C,,,,,,,
CC(C)C1CCCc2ccccc21 (configuration not stated),,not readily biodegradable,,,,,,
CCn1c2ccccc2c2ccccc21,68 °C,,,-3.66,,,,
O=C(O)[C@H]1CC[C@H](C(=O)O)CC1,312 °C,,,,,,,
S=C=S,-112 °C,,46 °C,2.56,-1.84,2.28,2.34,
N[C@H](Cc1ccccc1)c1ccccc1,,,311 °C,,,,,
CC(=O)CC(=O)Nc1ccc(-c2ccc(NC(=O)CC(C)=O)c(C)c2)cc1C,212 °C,not readily biodegradable,,,,,,

# Same assay, conditions: fish
Compound,log10 BCF,log10 biotransformation half-life (days)
O=[N+]([O-])c1cc(S(=O)(=O)Nc2ccccc2)ccc1Nc1ccccc1,1.61,-0.66
CCOP(=O)(OCC)Oc1cc(C)nc(C(C)C)n1,-0.35,
Nc1ccc(S(=O)(=O)[O][Na])c2ccccc12,0.78,
Clc1c(Cl)c(Cl)c2c(c1Cl)Oc1ccccc1O2,3.46,1.02
Cc1ccccc1C,1.15,
ClC1=C(Cl)C2(Cl)C3C(Cl)C=CC3C1(Cl)C2(Cl)Cl (configuration not stated),3.94,1.45
Nc1ccccn1,1.06,
Nc1ccc(Cl)cc1Cl,1.36,-0.65
S=C=S,1.29,
CC(=O)CC(=O)Nc1ccc(-c2ccc(NC(=O)CC(C)=O)c(C)c2)cc1C,0.2,-1.5

# From the OPERA property sets (Mansouri et al. 2018)
